In US20080299123A1, “TREATMENT OF CHEMOTHERAPY- OR RADIOTHERAPY-RESISTANT TUMORS” (Deutsches Krebsforschungszentrum Stiftung des offentlichen …, priority 2006, published 2008):

What was measured:
[1] = system: cathepsin B and CRABPII transcription; assay: L1-dependent gene regulation by qPCR in HEK293-hL1wt cells; type: cell-based, human; details: preincubation 96 h
Experimental: (§1) (A) Analysis of L1-32 cleavage by γ-secretase. Cells were treated for 48 h at 37° C. with presenilin inhibitor IX (DAPT) or for control with DMSO. Isolated membranes were incubated for 2 h at 37° C. and then separated into pellet or supernatant (SN) fractions by ultracentrifugation. Lanes 1 to 2 show cells treated with DMSO (vehicle). Lanes 3 and 4 show cells preincubated with DAPT. (B) SKOV3ip cells were treated with DAPT either in the presence or absence of the metalloprotease inhibitor TAPI-0 for 24 hr. Cells were lysed in BOG lysis buffer and analyzed by Western blot analysis. The cell supernatant was analyzed for soluble L1 using mAb L1-11A and the cell lysate was examined for L1-32 using peytL1. (C) HEK293 or HEK293-hL1wt cells were treated with DMSO, DAPT, TAPI-0 or both inhibitors for 96 h. mRNA was transcribed to cDNA and analyzed by qPCR for the genes CRABPII and cathepsin B. (D) Analysis of ERK phosphorylation in SKOV3ip cells after treatment with the indicated compounds.
We next investigated whether L1-mediated gene regulation was dependent on L1-processing, by carrying out inhibition experiments. […]
mRNA was isolated using the Quiagen RNAeasy mini kit (Quiagen Hilden, Germany). […] After exposing of the hybridized membranes, the PhosphorImager screens were scanned (Fuji FLA-3000, 100 μm resolution, Fuji BAS-reader software). […]

[2] = system: γ-secretase; assay: In vitro γ-secretase activity on membranes of CHO-hL1wt cells; type: cell-based; details: cells preincubated 48 h with inhibitor; membranes 2 h at 37° C.
Experimental: as §1
Consecutive cleavage by both enzymes is a hallmark of Notch, APP and CD44 signaling that is followed by translocation of the intracellular portion to the nucleus (22). To verify this observation for tumor cells, we analyzed the processing of L1-32 in more detail. […] Indeed, we detected L1-28 in the supernatant fraction (FIG. 11A, lane 2). […]

[3] = system: ERK phosphorylation; assay: ERK phosphorylation in SKOV3ip cells; type: cell-based, human; details: treatment with DAPT, TAPI-0
Experimental: as §1
(§2) (A) Effect of L1-antibodies on ERK phosphorylation in SKOV3ip cells. The cells were incubated for 24 hr at 37° C. with the indicated purified antibodies to L1 (10 μg/ml) or isotype control IgG. […] Soluble L1 in the supernant and L1-32 in the cell lysate were analyzed by Western blot. (C) mRNA was isolated from antibody treated SKOV3ip cells, transcribed to cDNA and analyzed by qPCR for the indicated genes. […]

[4] = system: L1; assay: L1 processing in SKOV3ip cells (L1-32 in lysate, soluble L1 in supernatant), Western blot; type: cell-based, human; details: 24 hr
Experimental: as §1, §2

[5] = system: L1CAM; assay: L1CAM expression in PT45-P1 cells; type: cell-based, human; details: 20 ng/mL IL1β
Experimental: (a) PT45-P1res cells were either left untreated (w/o) or treated with 250 ng/mL IL1-RA for 6 hours. In parallel, PT45-P1 cells were either left untreated (w/o) or treated with 20 ng/mL IL1β for 6 hours. L1CAM mRNA levels were analysed by real-time PCR and compared with β-actin used as control. Data from duplicate measurements are expressed as amount of mRNA in arbitrary units. Results from one representative out of three experiments are shown. (b) Cellular lysates from PT45-P1res and PT45-P1 cells were subjected to western blotting using an antibody for the detection of full-length L1CAM. PT45-P1res cells were either left untreated (w/o) or treated with 250 ng/mL IL1-RA for 24 hours. In parallel, PT45-P1 cells were either left untreated (w/o) or treated with 20 ng/mL IL1β for 24 hours. In all experiments, a HSP90 antibody was used as a control for equal protein load.
Cells were seeded into 6 well and 12 well plates, respectively, and transfected or treated as indicated. […] Protein concentrations were determined using the Dc Protein assay (BioRad). […]
2 μg of total RNA were reverse-transcribed into single-stranded cDNA, as described previously (Schafer et al., 1999). […] Data were collected during annealing steps and were further analysed by using the i-Cycler iQ Optical system software (BioRad). All samples were analysed in duplicates and data are expressed as amount of mRNA in arbitrary units.

Compound	L1-dependent regulation of transcription for cathepsin B and CRABPII [1]	release of L1-28 from the membrane into the supernatant [2]	ERK activation in treated cells [3]	L1-32 in cell lysate [4]	soluble L1 in the medium [4]	L1CAM expression [5]
C[C@H](NC(=O)Cc1cc(F)cc(F)c1)C(=O)N[C@H](C(=O)OC(C)(C)C)c1ccccc1 [DAPT]	blocked	could not release this fragment into the supernatant	did not interfere with ERK activation	strong increase in the metalloprotease cleavage fragment L1-32	not increased by the treatment	–
IL1β: recombinant human Interleukin 1 beta from R&D Systems	–	–	–	–	–	enhanced L1CAM expression
